# In US4543350A, “Carcinostatic agent” (Sanyo Machine Works, Ltd., priority 1982, dated 1985):
# Where “and” joins values, the source holds several entries; their conditions need not be identical. Identical values can stand only once.
# Legend:
# Colon 26 = assay: Sensitivity test: inclusion of tritium thymidine, uridine and leucine into cultured Colon 26; assay type: cell-based; details: for Average Counts per Minute, Leucine / Counts per Minute in the Case of Leucine: leucine (protein); for Average Counts per Minute, Leucine / Counts per Minute in the Case of Leucine / Average Counts per Minute, Tritium Thymidine / Counts per Minute in the Case of Tritium Thymidine / Average Counts per Minute, Uridine / Counts per Minute in the Case of Uridine: 3 days; for Counts per Minute in the Case of Leucine / Counts per Minute in the Case of Tritium Thymidine / Counts per Minute in the Case of Uridine: single counts; for Average Counts per Minute, Tritium Thymidine / Counts per Minute in the Case of Tritium Thymidine: tritium thymidine (DNA); for Average Counts per Minute, Uridine / Counts per Minute in the Case of Uridine: uridine (RNA)
# Method: (1) Inhibition Index (I.I.) is calculated from the following equation, an
# where I.I. exceeds 75%, it is judged effective.
# - (2) Measurement is made on a scintillation counter.
# [1] = tested on: BW 5174 (thymoma of AKR mouse); assay: Cytotoxicity test (51Cr release) of spleen and intraperitoneal cells of Eisenin-administered mice; assay type: cell-based
# Description: Further, the target cell employed was BW 5174 (thymoma of AKR mouse). The spleen cells and the intraperitoneal cells were respectively divided into the adherent cells and the non-adherent cells, and cytotoxicity was examined in each case.
# (1) Percent Cytotoxicity (%) in Table 3 is based on the following
# (2) Measurement is made by ^51 Cr release assay. (3) Acute Toxicit
# [2] = Effective dosage estimated from the various test results; assay type: in vivo; details: average body weight of Balb/C mice taken as 20 g
# [3] = tested on: Colon 26 (Balb/C Colon cancer); assay: Colon 26 transplanted subcutaneously to Balb/C mice: tumor weight and survival rate; assay type: in vivo; details: Colon 26 s.c. in Balb/C mice; Eisenin i.p. 5 mg per animal every other day three times
# Description: (§1) The animals used as experimental materials were Balb/C mice and nude mice, and the tumors used were Colon (Balb/C Colon cancer) and Sarcoma 180.
# a. 1,000,000 Cells of Colon 26 were transplanted subcutaneously to Balb/C mice.
# Water solubility = assay type: physicochemical
# Sarcoma 180 = Sarcoma 180 transplanted subcutaneously to Balb/C mice: tumor weight; assay type: in vivo; details: Sarcoma 180 s.c. in Balb/C mice; Eisenin i.p. and orally 5 mg per animal every other day three times
# Description: as §1
# Balb/C mice = assay: Acute toxicity test; assay type: in vivo; details: for No. of Death: 9 Balb/C mice
substance,measurement,setting,value
L-Pyroglu-L-Gln-L-Ala [Eisenin],direct effect on tumor cells (sensitivity test; I.I. above 75% is judged effective),"Colon 26; Colon 26 culture, all concentrations and labels",no direct effect of Eisenin on tumor cells
same,"Average Counts per Minute, Leucine",Colon 26; Eisenin 0.0001 mg/ml,12232 CPM
same,Counts per Minute in the Case of Leucine,Colon 26; Eisenin 0.0001 mg/ml,12952 CPM and 11936 CPM and 11808 CPM and 10952 CPM
same,"Average Counts per Minute, Leucine",Colon 26; Eisenin 0.001 mg/ml,13743 CPM
same,Counts per Minute in the Case of Leucine,Colon 26; Eisenin 0.001 mg/ml,13620 CPM and 14230 CPM and 13379 CPM and 11355 CPM
same,"Average Counts per Minute, Leucine",Colon 26; Eisenin 0.01 mg/ml,11478 CPM
same,Counts per Minute in the Case of Leucine,Colon 26; Eisenin 0.01 mg/ml,12285 CPM and 11020 CPM and 12097 CPM and 11318 CPM
same,"Average Counts per Minute, Leucine",Colon 26; Eisenin 0.1 mg/ml,11318 CPM
same,Counts per Minute in the Case of Leucine,Colon 26; Eisenin 0.1 mg/ml,13311 CPM and 12566 CPM and 8076 CPM and 7076 CPM
same,"Average Counts per Minute, Leucine",Colon 26; Eisenin 1.0 mg/ml,6521 CPM
same,Counts per Minute in the Case of Leucine,Colon 26; Eisenin 1.0 mg/ml,6826 CPM and 6150 CPM and 6587 CPM
same,"Average Counts per Minute, Tritium Thymidine",Colon 26; Eisenin 0.0001 mg/ml,229878 CPM
same,Counts per Minute in the Case of Tritium Thymidine,Colon 26; Eisenin 0.0001 mg/ml,231236 CPM and 219336 CPM and 224786 CPM and 233612 CPM
same,"Average Counts per Minute, Tritium Thymidine",Colon 26; Eisenin 0.001 mg/ml,218332 CPM
same,Counts per Minute in the Case of Tritium Thymidine,Colon 26; Eisenin 0.001 mg/ml,220010 CPM and 213816 CPM and 221170 CPM and 213017 CPM
same,"Average Counts per Minute, Tritium Thymidine",Colon 26; Eisenin 0.01 mg/ml,238823 CPM
same,Counts per Minute in the Case of Tritium Thymidine,Colon 26; Eisenin 0.01 mg/ml,207474 CPM and 229569 CPM and 240628 CPM and 246273 CPM
same,"Average Counts per Minute, Tritium Thymidine",Colon 26; Eisenin 0.1 mg/ml,198381 CPM
same,Counts per Minute in the Case of Tritium Thymidine,Colon 26; Eisenin 0.1 mg/ml,190120 CPM and 203872 CPM and 201151 CPM and 223845 CPM
same,"Average Counts per Minute, Tritium Thymidine",Colon 26; Eisenin 1.0 mg/ml,170297 CPM
same,Counts per Minute in the Case of Tritium Thymidine,Colon 26; Eisenin 1.0 mg/ml,140430 CPM and 171170 CPM and 163554 CPM and 176167 CPM
same,"Average Counts per Minute, Uridine",Colon 26; Eisenin 0.0001 mg/ml,30793 CPM
same,Counts per Minute in the Case of Uridine,Colon 26; Eisenin 0.0001 mg/ml,32836 CPM and 29585 CPM and 24135 CPM and 29958 CPM
same,"Average Counts per Minute, Uridine",Colon 26; Eisenin 0.001 mg/ml,31169 CPM
same,Counts per Minute in the Case of Uridine,Colon 26; Eisenin 0.001 mg/ml,39415 CPM and 31675 CPM and 28671 CPM and 33161 CPM
same,"Average Counts per Minute, Uridine",Colon 26; Eisenin 0.01 mg/ml,33039 CPM
same,Counts per Minute in the Case of Uridine,Colon 26; Eisenin 0.01 mg/ml,37043 CPM and 33211 CPM and 31498 CPM and 34408 CPM
same,"Average Counts per Minute, Uridine",Colon 26; Eisenin 0.1 mg/ml,25426 CPM
same,Counts per Minute in the Case of Uridine,Colon 26; Eisenin 0.1 mg/ml,32774 CPM and 25271 CPM and 24222 CPM and 26786 CPM
same,"Average Counts per Minute, Uridine",Colon 26; Eisenin 1.0 mg/ml,21107 CPM
same,Counts per Minute in the Case of Uridine,Colon 26; Eisenin 1.0 mg/ml,27088 CPM and 20903 CPM and 19954 CPM and 22463 CPM
same,"difference in cytotoxicity versus control group, intraperitoneal cells",[1],a significant difference
same,effective dosage as estimated from the test results,[2],about 15 mg per 20 g
same,"anti-tumor effect (weight of the tumor, survival rate; FIG. 1, FIG. 2)",[3],an anti-tumor effect of Eisenin is recognized
same,solubility in water,Water solubility,water soluble
same,anti-tumor effect (weight of the tumor; FIG. 5),Sarcoma 180,a similar anti-tumor effect is recognized
same,No. of Death,Balb/C mice; Eisenin 3 g/kg intraperitoneally,1/9
same,No. of Death,Balb/C mice; Eisenin 6 g/kg intraperitoneally,7/9
same,LD50,"Balb/C mice; intraperitoneal, Balb/C mice",~5000 mg/kg
